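96-well plates; 48 h exposure; 5 concentrations. Endpoints by linear interpolation between flanking doses. Not reached: highest tested concentration assigned. GI50 = concentration required for 50% inhibition of growth. TGI: total growth inhibition.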
Tests used:
Assay in all cases: NCI-60 cell line screen, 48 h
[1] = system: MDA-MB-231 breast
[2] = system: PC-3 prostate
[3] = system: MCF7 breast
[4] = system: MALME-3M melanoma
[5] = system: UACC-257 melanoma
[6] = system: M14 melanoma
[7] = system: CCRF-CEM leukemia
[8] = system: DU-145 prostate
[9] = system: SF-539 CNS
[10] = system: NCI-H23 lung

SMILES	TGI [1]	TGI [2]	TGI [3]	TGI [4]	TGI [5]	TGI [6]	TGI [7]	TGI [8]	TGI [9]	TGI [10]	GI50 [1]	GI50 [2]	GI50 [3]	GI50 [4]	GI50 [5]	GI50 [6]	GI50 [7]	GI50 [8]	GI50 [9]	GI50 [10]
CCOC(=O)C(NC(=O)c1ccccc1)(N1CCN(c2cc3c(cc2F)c(=O)c(C(=O)O)cn3CC)CC1)C(F)(F)F (stereo not given)	82.9 µM	> 100 µM	69.2 µM	90.1 µM	44.7 µM	> 100 µM	86.2 µM	> 100 µM	82.9 µM	> 100 µM	–	–	–	–	–	–	–	–	–	–
Cc1ccc(C2=C(C#N)C(N)OC3=C2COc2ccccc23)cc1 (stereo not given)	> 100 µM	57.2 µM	> 100 µM	82.1 µM	> 100 µM	> 100 µM	76 µM	69.1 µM	> 100 µM	> 100 µM	–	–	–	–	–	–	–	–	–	–
S=c1[nH]n2c(CCCCCCCCc3nnc4sc(=S)[nH]n34)nnc2s1	> 100 µM	> 100 µM	> 100 µM	> 100 µM	> 100 µM	> 100 µM	> 100 µM	> 100 µM	> 100 µM	> 100 µM	–	–	–	–	–	–	–	–	–	–
Cc1cc(S(=O)(=O)Nc2nc3ccccc3nc2-c2ccc(Cl)cc2)c(S)cc1Cl	54 µM	34.3 µM	34.1 µM	41.4 µM	44.2 µM	39.5 µM	58.1 µM	29.9 µM	34 µM	33.4 µM	–	–	–	–	–	–	–	–	–	–
CCOC(=O)C(Cc1ccc(OC(=O)OC(C)(C)C)cc1)NC(=O)OC(C)(C)C (stereo not given)	> 100 µM	> 100 µM	> 100 µM	> 100 µM	54.3 µM	79.9 µM	> 100 µM	96 µM	> 100 µM	> 100 µM	–	–	–	–	–	–	–	–	–	–
CC(=O)Oc1c(N2CCCCC2)c(C(=O)c2ccccc2)c(O)c2ccn(N(C)C)c12	30.6 µM	33.7 µM	30.6 µM	31.8 µM	31.2 µM	53.7 µM	76.1 µM	56.6 µM	35.9 µM	38.5 µM	–	–	–	–	–	–	–	–	–	–
O=C(/C=C(\S/C=C(/c1ccccc1)N1CCn2c(C(=O)c3ccccc3)c(C(=O)c3ccccc3)c(C(=O)c3ccccc3)c21)C(=O)c1ccccc1)c1ccccc1	> 10 µM	> 10 µM	> 10 µM	> 10 µM	> 10 µM	> 10 µM	> 10 µM	> 10 µM	> 10 µM	> 10 µM	–	–	–	–	–	–	–	–	–	–
C=CCN(CCNS(=O)(=O)c1ccc(C)cc1)S(=O)(=O)c1ccc(C)cc1	> 100 µM	> 100 µM	> 84.2 µM	> 100 µM	> 100 µM	> 100 µM	> 100 µM	> 100 µM	> 100 µM	> 95.5 µM	–	–	–	–	–	–	–	–	–	–
O=C(N/N=C\c1ccc(N(CCCl)CCCl)cc1[N+](=O)[O-])c1cccnc1	> 100 µM	> 100 µM	> 100 µM	> 100 µM	> 100 µM	> 100 µM	> 100 µM	> 100 µM	> 100 µM	> 100 µM	> 100 µM	> 100 µM	> 100 µM	> 100 µM	> 100 µM	> 100 µM	> 100 µM	> 100 µM	> 100 µM	> 100 µM
COc1ccc(N=NC(=O)NC(CC(C)C)C(N)=O)cc1 (stereo not given)	> 31.6 µM	> 100 µM	> 31.6 µM	> 100 µM	> 31.6 µM	> 100 µM	> 100 µM	> 100 µM	> 31.6 µM	> 100 µM	–	–	–	–	–	–	–	–	–	–
NCC(O)CNC(=O)c1ccc(-c2ccc(-c3ccc(C(=O)NCC(O)CN)cc3)o2)cc1 (stereo not given)	54.2 µM	48.3 µM	> 100 µM	44.2 µM	> 100 µM	> 100 µM	> 100 µM	50.6 µM	41.6 µM	> 100 µM	–	–	–	–	–	–	–	–	–	–
CCCCCCCCCCCC[C@@H](O)[C@H]1CCC([C@H](O)CCCCC(=O)CCCCCCCC2=C[C@H](C)OC2=O)O1 (stereo not given in full)	> 50 µM	> 50 µM	> 50 µM	> 50 µM	> 50 µM	> 35.8 µM	> 50 µM	> 50 µM	> 50 µM	> 50 µM	–	–	–	–	–	–	–	–	–	–
Cc1ccc(C(=O)Nc2ccc(CP(=O)(O)O)cc2CP(=O)(O)O)cc1NC(=O)Nc1cc(C(=O)Nc2ccc(CP(=O)(O)O)cc2CP(=O)(O)O)ccc1C	> 100 µM	> 100 µM	> 100 µM	> 100 µM	> 100 µM	> 100 µM	> 100 µM	> 100 µM	> 100 µM	> 100 µM	–	–	–	–	–	–	–	–	–	–
CSc1ccn(C2CC(F)C(CO)O2)c(=O)n1 (stereo not given)	> 100 µM	> 100 µM	> 100 µM	> 100 µM	> 100 µM	> 100 µM	> 100 µM	> 100 µM	> 100 µM	> 100 µM	–	–	–	–	–	–	–	–	–	–
Cc1nc(C)c(N2CCNCC2)c(=O)[nH]1	> 100 µM	> 100 µM	> 100 µM	> 100 µM	> 100 µM	> 100 µM	> 100 µM	> 100 µM	> 100 µM	> 100 µM	–	–	–	–	–	–	–	–	–	–
Cc1c(N=Nc2ccccc2)c(C)n(C2OC(CO)C(O)C(O)C2O)c(=S)c1C#N (stereo not given)	> 100 µM	78.6 µM	> 100 µM	> 100 µM	> 100 µM	65.8 µM	> 100 µM	> 100 µM	57.8 µM	> 100 µM	–	–	–	–	–	–	–	–	–	–

Reference: PubChem BioAssay (NCI)
